Data reported in PubChem BioAssay AID624041 (The Scripps Research Institute Molecular Screening Center, 2012).
The source made the active and inactive calls. How the calls were made is not given here.

Assays:
[1] = mouse liver ABHD6 target engagement – competitive gel-based ABPP, fluorescence, in vivo study for DAGLb inhibitor project, late-stage follow-up (AID 624041); conditions: in vivo dosing, anti-target, probe FP-Rh, stronger effect = higher value
[2] = target: Monoacylglycerol lipase ABHD6 (Mus musculus) (UniProt Q8R2Y0); assay: as above; conditions: in vivo dosing
Sequence of Monoacylglycerol lipase ABHD6 (Mus musculus) (Q8R2Y0 whole entry, looked up): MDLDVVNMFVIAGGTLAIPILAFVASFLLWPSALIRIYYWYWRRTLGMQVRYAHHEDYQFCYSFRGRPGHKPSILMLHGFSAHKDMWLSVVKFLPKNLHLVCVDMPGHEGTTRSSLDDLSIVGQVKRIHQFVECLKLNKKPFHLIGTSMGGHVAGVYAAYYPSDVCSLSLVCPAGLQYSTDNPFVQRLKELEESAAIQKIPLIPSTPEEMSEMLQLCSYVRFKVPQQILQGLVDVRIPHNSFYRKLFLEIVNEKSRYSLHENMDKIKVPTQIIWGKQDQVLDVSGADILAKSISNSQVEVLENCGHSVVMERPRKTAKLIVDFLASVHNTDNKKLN

**Q.** For `COc1ccc(-c2ccc(-c3cn(C(=O)N4CCCCC4c4ccccc4)nn3)cc2)cc1` (stereo not drawn), which inhibition ([1]; 65 kDa SH, dose or concentration not given here) is on record?
**A.** 70% (inactive)

**Q.** And the inhibition ([1]; 65 kDa SH, inhibition at 5 mg/kg)?
**A.** 5%

**Q.** What about the inhibition ([1]; 72 kDa SH, dose or concentration not given here) of the same compound?
**A.** 80% (inactive)

**Q.** What about the inhibition ([1]; 72 kDa SH, inhibition at 5 mg/kg) of the same compound?
**A.** 20%

**Q.** And the inhibition ([2]; probe FP-Rh, stronger effect = higher value, dose or concentration not given here)?
**A.** 95%

**Q.** What about the inhibition ([2]; probe FP-Rh, inhibition at 5 mg/kg, stronger effect = higher value) of the same compound?
**A.** 98%

**Q.** And the inhibition ([2]; probe HT-01, stronger effect = higher value, dose or concentration not given here)?
**A.** 90%

**Q.** What about the inhibition ([2]; probe HT-01, inhibition at 5 mg/kg, stronger effect = higher value) of the same compound?
**A.** 90%
